The results in this text go back to PubChem BioAssay AID1117328 (Cheminformatics & Chemogenomics Research Group (CCRG), …, 2015).

The source made the active and inactive calls. The rule behind the calls is not given here.

Sequence of Ribosomal protein S6 kinase beta-1 (Homo sapiens) (P23443 whole entry, looked up): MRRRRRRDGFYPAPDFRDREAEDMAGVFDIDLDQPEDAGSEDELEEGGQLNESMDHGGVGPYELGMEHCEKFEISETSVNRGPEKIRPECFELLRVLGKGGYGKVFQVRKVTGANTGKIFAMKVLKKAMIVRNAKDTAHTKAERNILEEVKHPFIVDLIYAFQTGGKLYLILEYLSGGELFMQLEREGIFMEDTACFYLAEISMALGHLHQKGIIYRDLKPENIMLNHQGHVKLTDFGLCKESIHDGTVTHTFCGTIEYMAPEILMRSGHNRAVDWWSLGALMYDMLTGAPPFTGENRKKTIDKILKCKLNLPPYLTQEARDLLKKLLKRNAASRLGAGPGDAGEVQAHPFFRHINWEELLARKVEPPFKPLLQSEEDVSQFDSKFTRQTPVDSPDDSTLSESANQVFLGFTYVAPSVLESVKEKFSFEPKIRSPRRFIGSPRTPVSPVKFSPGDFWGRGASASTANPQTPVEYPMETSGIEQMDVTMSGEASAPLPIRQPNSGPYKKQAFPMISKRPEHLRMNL

The assay concerns the target Ribosomal protein S6 kinase beta-1 (Homo sapiens) (UniProt P23443). Kind of assay: p70S6K1 kinase inhibitors, biochemical, LANCE Ultra TR-FRET (AID 1117328). The settings on record: LANCE Ultra TR-FRET kinase assay, at 20 µM (top of the series). For orientation: TR-FRET usually uses a lanthanide donor and a delayed reading to cut background.
For `CCCCCCCCCCCCCCCCCCNC(=O)OC1CCN(C(=O)OC[C@H](COC(=O)N(Cc2cccc[n+]2CC)C(=O)c2ccccc2OC)OC)CC1`, the inhibition was -363% (inactive).
The figure for `COCc1c(C(C)C)nc(C(C)C)c(/C=C/[C@@H](O)C[C@@H](O)CC(=O)O)c1-c1ccc(F)cc1` is 1.86% (inactive); for `Oc1c(I)cc(I)c2cccnc12` it is 1.27% (inactive); for `COc1cc2nc(N3CCN(C(=O)c4ccco4)CC3)nc(N)c2cc1OC` it is 28.5% (inactive).
The figure for `Cn1cnc([N+](=O)[O-])c1Sc1ncnc2nc[nH]c12` is -0.72% (inactive).

Usually inhibition stands for the change of the read-out against control, counted positive when it falls.
